# Reference: US9029359B2, “Heteroaryl Btk inhibitors” (Biogen Idec MA, Inc., priority 2009, dated 2015)
# Target: T1, BTK (Homo sapiens, UniProt Q06187)
# T1 construct: purchased Upstate 14-552
# Assay: In vitro BTK kinase assay: BTK-POLYGAT-LS ASSAY
# Assay type: biochemical
# Conditions: ATP 10 uM
# Procedure: In vitro BTK kinase assay: BTK-POLYGAT-LS ASSAY. The purpose of the BTK in vitro assay is to determine compound potency against BTK through the measurement of IC50. […] A 24 μL aliquot of a ATP/peptide master mix (final concentration; ATP 10 μM, polyGAT 100 nM) in kinase buffer (10 mM Tris-HCl pH 7.5, 10 mM MgCl2, 200 μM Na3VO4, 5 mM DTT, 0.01% Triton X-100, and 0.2 mg/ml Casein) is added to each well. […] The assay is incubated for 30 minutes before being stopped with 28 μL of a 50 mM EDTA solution. […] The plate is covered and incubated for 45 minutes at room temperature. Time resolved fluorescence (TRF) on Molecular Devices M5 (332 nm excitation; 488 nm emission; 518 nm fluorescein emission) is measured.
# T1 sequence (Q06187 whole entry): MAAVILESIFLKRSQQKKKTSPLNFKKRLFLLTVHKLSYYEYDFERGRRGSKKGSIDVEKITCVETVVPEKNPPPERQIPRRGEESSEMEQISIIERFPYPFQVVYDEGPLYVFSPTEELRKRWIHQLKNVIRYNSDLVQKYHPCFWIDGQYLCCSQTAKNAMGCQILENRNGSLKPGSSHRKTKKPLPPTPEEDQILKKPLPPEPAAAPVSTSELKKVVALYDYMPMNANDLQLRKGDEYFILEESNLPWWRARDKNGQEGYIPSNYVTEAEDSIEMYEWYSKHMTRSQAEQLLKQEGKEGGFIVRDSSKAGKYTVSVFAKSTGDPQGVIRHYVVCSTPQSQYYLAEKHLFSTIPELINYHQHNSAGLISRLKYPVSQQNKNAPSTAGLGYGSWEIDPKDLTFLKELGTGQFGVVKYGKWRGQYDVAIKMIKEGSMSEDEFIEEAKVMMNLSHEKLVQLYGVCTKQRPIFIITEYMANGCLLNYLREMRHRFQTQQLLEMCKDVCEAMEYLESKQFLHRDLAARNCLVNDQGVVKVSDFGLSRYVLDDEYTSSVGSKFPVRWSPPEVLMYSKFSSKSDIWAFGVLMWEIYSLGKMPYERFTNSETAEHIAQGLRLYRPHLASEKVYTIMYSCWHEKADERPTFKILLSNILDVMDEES
row,SMILES,IC50 [nM]
1,"C[C@H](Nc1ccccc1)C(=O)NC1CCCN(c2ncnc3[nH]ccc23)C1 (stereo partly drawn) [Example 102, (2S)—N-(1-(7H-pyrrolo[2,3-d]pyrimidin-4-yl)piperidin-3-yl)-2-(phenylamino)propanamide]",> 10000
2,"O=C(N[C@@H]1CCCN(c2ncnc3[nH]ccc23)C1)[C@@H](Cc1ccccc1)Nc1ccccc1 [Example 104, (R)—N—((R)-1-(7H-pyrrolo[2,3-d]pyrimidin-4-yl)piperidin-3-yl)-3-phenyl-2-(phenylamino)propanamide]",1000 to 10000
3,"CC(C)C[C@@H](Nc1ccccc1)C(=O)N[C@@H]1CCCN(c2ncnc3[nH]ccc23)C1 [Example 105, (R)—N—((R)-1-(7H-pyrrolo[2,3-d]pyrimidin-4-yl)piperidin-3-yl)-4-methyl-2-(phenylamino)pentanamide]",1000 to 10000
4,"O=C(N[C@@H]1CCCN(c2ncnc3[nH]ccc23)C1)[C@H](Nc1ccccc1)c1ccccc1 [Example 106, (R)—N—((R)-1-(7H-pyrrolo[2,3-d]pyrimidin-4-yl)piperidin-3-yl)-2-phenyl-2-(phenylamino)acetamide]",> 10000
5,"O=C(N[C@@H]1CCCN(c2ncnc3[nH]ccc23)C1)[C@H](Nc1ccccc1)C1CCCCC1 [Example 109, (R)—N—((R)-1-(7H-pyrrolo[2,3-d]pyrimidin-4-yl)piperidin-3-yl)-2-cyclohexyl-2-(phenylamino)acetamide]",1000 to 10000
6,"CS(=O)(=O)CC[C@@H](Nc1ccccc1)C(=O)N[C@@H]1CCCN(c2ncnc3[nH]ccc23)C1 [Example 116, (R)—N—((R)-1-(7H-pyrrolo[2,3-d]pyrimidin-4-yl)piperidin-3-yl)-4-(methylsulfonyl)-2-(phenylamino)butanamide]",1000 to 10000
7,"CC(C)CC[C@@H](Nc1ccccc1)C(=O)N[C@@H]1CCCN(c2ncnc3[nH]ccc23)C1 [Example 122, (R)—N—((R)-1-(7H-pyrrolo[2,3-d]pyrimidin-4-yl)piperidin-3-yl)-5-methyl-2-(phenylamino)hexanamide]",1000 to 10000
8,"O=C(N[C@@H]1CCCN(c2ncnc3[nH]ccc23)C1)C(CC(F)(F)F)Nc1ccccc1 (stereo partly drawn) [Example 123, (N—((R)-1-(7H-pyrrolo[2,3-d]pyrimidin-4-yl)piperidin-3-yl)-4,4,4-trifluoro-2-(phenylamino)butanamide)]",1000 to 10000
9,"O=C(N[C@@H]1CCCN(c2ncnc3[nH]ccc23)C1)C1(Nc2ccccc2)CC1 [Example 126, (R)—N-(1-(7H-pyrrolo[2,3-d]pyrimidin-4-yl)piperidin-3-yl)-1-(phenylamino)cyclopropanecarboxamide]",1000 to 10000
10,"O=C(N[C@@H]1CCCN(c2ncnc3[nH]ccc23)C1)C1(Nc2ccccc2)CCCC1 [Example 127, (R)—N-(1-(7H-pyrrolo[2,3-d]pyrimidin-4-yl)piperidin-3-yl)-1-(phenylamino)cyclopentanecarboxamide]",1000 to 10000
11,"CC(C)(Nc1ccccc1)C(=O)N[C@@H]1CCCN(c2ncnc3[nH]ccc23)C1 [Example 128, (R)—N-(1-(7H-pyrrolo[2,3-d]pyrimidin-4-yl)piperidin-3-yl)-2-methyl-2-(phenylamino)propanamide]",1000 to 10000
12,"N#Cc1c(N)ncnc1N1CCC[C@@H](NC(=O)[C@H](Nc2cc(F)cc(Cl)c2)C2CC2)C1 [Example 134, (R)—N—((R)-1-(6-amino-5-cyanopyrimidin-4-yl)piperidin-3-yl)-2-(3-chloro-5-fluorophenylamino)-2-cyclopropylacetamide]",1000 to 10000
13,"O=C1CCc2c(ncnc2N2CCC[C@@H](NC(=O)[C@H](Nc3cc(F)cc(Cl)c3)C3CC3)C2)N1 [Example 135, (R)-2-(3-chloro-5-fluorophenylamino)-2-cyclopropyl-N—((R)-1-(7-oxo-5,6,7,8-tetrahydropyrido[2,3-d]pyrimidin-4-yl)piperidin-3-yl)acetamide]",100 to 999

# Now from value to compound:
row,IC50 [nM],SMILES
1,100 to 999,"C[C@@H](Nc1ccccc1)C(=O)N[C@@H]1CCCN(c2ncnc3[nH]ccc23)C1 [Example 100, (R)—N—((R)-1-(7H-pyrrolo[2,3-d]pyrimidin-4-yl)piperidin-3-yl)-2-(phenylamino)propanamide]"
2,100 to 999,"C[C@@H](Nc1ccccc1)C(=O)NC1CCCN(c2ncnc3[nH]ccc23)C1 (stereo partly drawn) [Example 101, (2R)—N-(1-(7H-pyrrolo[2,3-d]pyrimidin-4-yl)piperidin-3-yl)-2-(phenylamino)propanamide]"
3,100 to 999,"CC(C)[C@@H](Nc1ccccc1)C(=O)N[C@@H]1CCCN(c2ncnc3[nH]ccc23)C1 [Example 103, (R)—N—((R)-1-(7H-pyrrolo[2,3-d]pyrimidin-4-yl)piperidin-3-yl)-3-methyl-2-(phenylamino)butanamide]"
4,< 100,"O=C(N[C@@H]1CCCN(c2ncnc3[nH]ccc23)C1)[C@H](Nc1ccccc1)C1CC1 [Example 107, (R)—N—((R)-1-(7H-pyrrolo[2,3-d]pyrimidin-4-yl)piperidin-3-yl)-2-cyclopropyl-2-(phenylamino)acetamide]"
5,100 to 999,"CC(C)(C)[C@@H](Nc1ccccc1)C(=O)N[C@@H]1CCCN(c2ncnc3[nH]ccc23)C1 [Example 108, (R)—N—((R)-1-(7H-pyrrolo[2,3-d]pyrimidin-4-yl)piperidin-3-yl)-3,3-dimethyl-2-(phenylamino)butanamide]"
6,100 to 999,"C[C@@H](O)[C@@H](Nc1ccccc1)C(=O)N[C@@H]1CCCN(c2ncnc3[nH]ccc23)C1 [Example 110, (2R,3R)—N—((R)-1-(7H-pyrrolo[2,3-d]pyrimidin-4-yl)piperidin-3-yl)-3-hydroxy-2-(phenylamino)butanamide]"
7,100 to 999,"C[C@H](O)[C@@H](Nc1ccccc1)C(=O)N[C@@H]1CCCN(c2ncnc3[nH]ccc23)C1 [Example 111, (2R,3S)—N—((R)-1-(7H-pyrrolo[2,3-d]pyrimidin-4-yl)piperidin-3-yl)-3-hydroxy-2-(phenylamino)butanamide]"
8,< 100,"CC(C)[C@@H](Nc1cccc(Cl)c1)C(=O)N[C@@H]1CCCN(c2ncnc3[nH]ccc23)C1 [Example 112, (R)—N—((R)-1-(7H-pyrrolo[2,3-d]pyrimidin-4-yl)piperidin-3-yl)-2-(3-chlorophenylamino)-3-methylbutanamide]"
9,< 100,"CC[C@@H](Nc1ccccc1)C(=O)N[C@@H]1CCCN(c2ncnc3[nH]ccc23)C1 [Example 114, (R)—N—((R)-1-(7H-pyrrolo[2,3-d]pyrimidin-4-yl)piperidin-3-yl)-2-(phenylamino)butanamide]"
10,100 to 999,"CC[C@H](C)[C@@H](Nc1ccccc1)C(=O)N[C@@H]1CCCN(c2ncnc3[nH]ccc23)C1 [Example 115, (2R,3S)—N—((R)-1-(7H-pyrrolo[2,3-d]pyrimidin-4-yl)piperidin-3-yl)-3-methyl-2-(phenylamino)pentanamide]"
11,100 to 999,"CC[C@@H](C)[C@@H](Nc1ccccc1)C(=O)N[C@@H]1CCCN(c2ncnc3[nH]ccc23)C1 [Example 117, (2R,3R)—N—((R)-1-(7H-pyrrolo[2,3-d]pyrimidin-4-yl)piperidin-3-yl)-3-methyl-2-(phenylamino)pentanamide]"
12,< 100,"O=C(N[C@@H]1CCCN(c2ncnc3[nH]ccc23)C1)[C@H](Nc1cccc(Cl)c1)C1CC1 [Example 119, (R)—N—((R)-1-(7H-pyrrolo[2,3-d]pyrimidin-4-yl)piperidin-3-yl)-2-(3-chlorophenylamino)-2-cyclopropylacetamide]"
13,< 100,"O=C(N[C@@H]1CCCN(c2ncnc3[nH]ccc23)C1)[C@H](Nc1cc(F)cc(F)c1)C1CC1 [Example 120, (R)—N—((R)-1-(7H-pyrrolo[2,3-d]pyrimidin-4-yl)piperidin-3-yl)-2-cyclopropyl-2-(3,5-difluorophenylamino)acetamide]"
14,< 100,"O=C(N[C@@H]1CCCN(c2ncnc3[nH]ccc23)C1)[C@H](Nc1cc(F)cc(C(F)(F)F)c1)C1CC1 [Example 121, (R)—N—((R)-1-(7H-pyrrolo[2,3-d]pyrimidin-4-yl)piperidin-3-yl)-2-cyclopropyl-2-(3-fluoro-5-(trifluoromethyl)phenylamino)acetamide]"
15,< 100,"CC(C)(C)[C@@H](Nc1cc(F)cc(Cl)c1)C(=O)N[C@@H]1CCCN(c2ncnc3[nH]ccc23)C1 [Example 124, (R)—N—((R)-1-(7H-pyrrolo[2,3-d]pyrimidin-4-yl)piperidin-3-yl)-2-(3-chloro-5-fluorophenylamino)-3,3-dimethylbutanamide]"
16,< 100,"CC[C@@H](Nc1cc(F)cc(Cl)c1)C(=O)N[C@@H]1CCCN(c2ncnc3[nH]ncc23)C1 [Example 129, (R)—N—((R)-1-(1H-pyrazolo[3,4-d]pyrimidin-4-yl)piperidin-3-yl)-2-(3-chloro-5-fluorophenylamino)butanamide]"
17,< 100,"CC[C@@H](Nc1cc(Cl)cc(Cl)c1)C(=O)N[C@@H]1CCCN(c2ncnc3[nH]ncc23)C1 [Example 130, (R)—N—((R)-1-(1H-pyrazolo[3,4-d]pyrimidin-4-yl)piperidin-3-yl)-2-(3,5-dichlorophenylamino)butanamide]"
18,< 100,"CC[C@@H](Nc1cccc(Cl)c1)C(=O)N[C@@H]1CCCN(c2ncnc3[nH]ncc23)C1 [Example 131, (R)—N—((R)-1-(1H-pyrazolo[3,4-d]pyrimidin-4-yl)piperidin-3-yl)-2-(3-chlorophenylamino)butanamide]"
19,100 to 999,"O=C(N[C@@H]1CCCN(c2ncnc3[nH]ccc23)C1)[C@@H](CC1CC1)Nc1cc(Cl)cc(Cl)c1 [Example 132, (R)—N—((R)-1-(7H-pyrrolo[2,3-d]pyrimidin-4-yl)piperidin-3-yl)-3-cyclopropyl-2-(3,5-dichlorophenylamino)propanamide]"
